Values of other authors, collected in US20100120733A1, “STEROID MODULATORS OF GLUCOCORTICOID RECEPTOR” (AUSPEX PHARMACEUTICALS, INC., priority 2008, published 2010).

Conditions: pooled data

| SMILES | elimination half-life |
| --- | --- |
| CC(C)C(=O)OCC(=O)[C@@]12O[C@H](C3CCCCC3)O[C@@H]1C[C@H]1[C@@H]3CCC4=CC(=O)C=C[C@]4(C)[C@H]3[C@@H](O)C[C@@]12C [ciclesonide, 16,17-[[(R)-cyclohexylmethylene]bis(oxy)]-11-hydroxy-21-(2-methyl-1-oxopropoxy)-(11-beta,16-alpha)-pregna-1,4-diene-3,20-dione] | 0.71 h |
| C[C@]12C=CC(=O)C=C1CC[C@@H]1[C@@H]2[C@@H](O)C[C@@]2(C)[C@H]1C[C@H]1O[C@@H](C3CCCCC3)O[C@]12C(=O)CO [des-CIC, desisobutyryl-ciclesonide] | 3.5 h |
